Test results: US9290451B2 (Hoffmann-La Roche Inc., priority 2011, dated 2016)

What was measured:
human CB1 receptors = human CB1 receptors (Homo sapiens (Human), UniProt P21554); test: cAMP assay, CHO cells expressing human CB1 receptors; format: cell-based; conditions: CHO cells expressing human CB1, cAMP; read-out: human CB1 EC50
How it was run: (§1)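 CHO cells, KRB buffer + 1 mM IBMX, 30 min 30 °C preincubation; compound 30 min 30 °C; lysis + TR-FRET cAMP detection, 2 h RT; cAMP from standard curve (10 μM–0.13 nM); EC50.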

human CB2 receptors = human CB2 receptors (Homo sapiens (Human), UniProt P34972); test: cAMP assay, CHO cells expressing human CB2 receptors; format: cell-based; conditions: CHO cells expressing human CB2, cAMP; read-out: human CB2 EC50
How it was run: as §1

Sequence of human CB2 receptors (P34972 whole entry): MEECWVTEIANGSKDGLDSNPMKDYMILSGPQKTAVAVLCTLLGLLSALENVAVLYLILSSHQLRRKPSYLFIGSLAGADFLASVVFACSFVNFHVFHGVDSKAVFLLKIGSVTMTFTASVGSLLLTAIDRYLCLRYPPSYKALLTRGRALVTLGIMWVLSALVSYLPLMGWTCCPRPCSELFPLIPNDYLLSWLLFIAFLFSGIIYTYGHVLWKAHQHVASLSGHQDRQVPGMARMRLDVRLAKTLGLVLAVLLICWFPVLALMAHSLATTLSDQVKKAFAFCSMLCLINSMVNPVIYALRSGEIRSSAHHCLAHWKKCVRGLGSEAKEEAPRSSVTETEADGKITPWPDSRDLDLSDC
Sequence of human CB1 receptors (P21554 whole entry): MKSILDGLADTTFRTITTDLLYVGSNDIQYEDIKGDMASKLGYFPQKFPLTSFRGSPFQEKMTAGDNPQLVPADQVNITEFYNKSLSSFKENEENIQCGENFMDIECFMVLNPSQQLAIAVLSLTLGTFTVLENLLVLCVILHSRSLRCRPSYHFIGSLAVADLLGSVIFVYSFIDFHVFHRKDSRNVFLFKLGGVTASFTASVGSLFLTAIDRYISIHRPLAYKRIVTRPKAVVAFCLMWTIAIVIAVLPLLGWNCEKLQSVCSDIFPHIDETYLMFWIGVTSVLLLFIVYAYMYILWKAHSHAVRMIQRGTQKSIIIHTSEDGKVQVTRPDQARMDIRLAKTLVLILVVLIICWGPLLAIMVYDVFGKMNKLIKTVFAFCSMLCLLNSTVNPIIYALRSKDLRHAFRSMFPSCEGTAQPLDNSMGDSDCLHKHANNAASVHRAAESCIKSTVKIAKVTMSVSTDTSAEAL

In the case of `CC(C)(NC(=O)c1ccc(C(F)(F)F)c(OCC2CC2)n1)c1ncon1` [Example 119, 6-Cyclopropylmethoxy-5-trifluoromethyl-pyridine-2-carboxylic acid (1-methyl-1-[1,2,4]oxadiazol-3-yl-ethyl)-amide], the EC50 (human CB1 receptors) is reported as > 10 µM and the EC50 (human CB2 receptors) is reported as 227 nM.

`CCC(CC)(NC(=O)c1ccc(C(F)(F)F)c(OCC2CCCO2)n1)C(=O)N(C)C` (centres unmarked) [Example 264, 6-(Tetrahydro-furan-2-ylmethoxy)-5-trifluoromethyl-pyridine-2-carboxylic acid (1-dimethylcarbamoyl-1-ethyl-propyl)-amide] showed an EC50 (human CB1 receptors) of 0.602 µM and an EC50 (human CB2 receptors) of 2.7 nM.

With `CNC(=O)[C@H](CC(C)(C)C)NC(=O)c1cccc(-c2cccc(Cl)c2)n1` [Example 193, (S)-6-(3-Chlorophenyl)-N-(4,4-dimethyl-1-(methylamino)-1-oxopentan-2-yl)picolinamide] the EC50 (human CB1 receptors) was > 10 µM and the EC50 (human CB2 receptors) was 99.4 nM.

For `Cc1nc(C(C)(C)NC(=O)c2ccc(C3CC3)c(OCC3CCOCC3)n2)no1` [Example 202, 5-Cyclopropyl-N-(2-(5-methyl-1,2,4-oxadiazol-3-yl)propan-2-yl)-6-((tetrahydro-2H-pyran-4-yl)methoxy)picolinamide], the EC50 (human CB1 receptors) was 0.615 µM and the EC50 (human CB2 receptors) was 23.6 nM.

`O=C(c1ccc(N2CCC(F)(F)C2)c(OCC2CC2)n1)N1CCS(=O)(=O)CC1` [Example 79] was tested, and the EC50 (human CB1 receptors) was > 10 µM and the EC50 (human CB2 receptors) was 2040 nM.

With `CC(C)C[C@@H](NC(=O)c1ccc(N2CC(F)(F)C2)c(OCC2CC2)n1)c1cccnn1` [Example 354, 6-Cyclopropylmethoxy-5-(3,3-difluoro-azetidin-1-yl)-pyridine-2-carboxylic acid ((R)-3-methyl-1-pyridazin-3-yl-butyl)-amide] the EC50 (human CB1 receptors) was > 10 µM and the EC50 (human CB2 receptors) was 14.9 nM.

With `CN(C)C(=O)[C@H](NC(=O)c1ccc(C2CC2)c(OCC2CC2)n1)c1ccccc1` [Example 227, 5-Cyclopropyl-6-cyclopropylmethoxy-pyridine-2-carboxylic acid ((−)-dimethylcarbamoyl-phenyl-methyl)-amide] the EC50 (human CB1 receptors) was > 10 µM and the EC50 (human CB2 receptors) was 40.8 nM.

For `CCC(CC)(NC(=O)c1ccc(N2CC(F)(F)C2)c(OCC2CC2)n1)C(=O)NC` [Example 86, 6-Cyclopropylmethoxy-5-(3,3-difluoro-azetidin-1-yl)-pyridine-2-carboxylic acid (1-ethyl-1-methylcarbamoyl-propyl)-amide], the EC50 (human CB1 receptors) was > 10 µM and the EC50 (human CB2 receptors) was 33.1 nM.

With `O=C(NN1CCCCC1)c1cccc(-c2ccc(Cl)cc2)n1` [Example 46, 6-(4-Chloro-phenyl)-pyridine-2-carboxylic acid piperidin-1-ylamide] the EC50 (human CB1 receptors) was > 10 µM and the EC50 (human CB2 receptors) was 290 nM.

`NC(=O)[C@H](CC1CC1)NC(=O)c1ccc(N2CC(F)(F)C2)c(OCC2CC2)n1` [Example 103, 6-Cyclopropylmethoxy-5-(3,3-difluoro-azetidin-1-yl)-pyridine-2-carboxylic acid ((S)-1-carbamoyl-2-cyclopropyl-ethyl)-amide] was tested, and the EC50 (human CB1 receptors) was > 10 µM and the EC50 (human CB2 receptors) was 7 nM.

For `COc1ccc(C(=O)NC(C)(C)c2nccs2)nc1-c1cccc(Cl)c1` [Example 82, 6-(3-Chloro-phenyl)-5-methoxy-pyridine-2-carboxylic acid (1-methyl-1-thiazol-2-yl-ethyl)-amide], the EC50 (human CB1 receptors) was 2.29 µM and the EC50 (human CB2 receptors) was 140 nM.

With `CC(C)CC(NC(=O)c1ccc(N2CC(F)(F)C2)c(OCC2CC2)n1)c1cccnc1` (centres unmarked) [Example 325, 6-Cyclopropylmethoxy-5-(3,3-difluoro-azetidin-1-yl)-pyridine-2-carboxylic acid (3-methyl-1-pyridin-3-yl-butyl)-amide] the EC50 (human CB1 receptors) was > 10 µM and the EC50 (human CB2 receptors) was 17.5 nM.

In the case of `CC(C)C[C@H](NC(=O)c1cccc(S(=O)(=O)CC(C)C)n1)C(N)=O` [Example 330, 6-(2-Methyl-propane-1-sulfonyl)-pyridine-2-carboxylic acid ((S)-1-carbamoyl-3-methyl-butyl)-amide], the EC50 (human CB1 receptors) is reported as > 10 µM and the EC50 (human CB2 receptors) is reported as 869 nM.

In the case of `O=C(N[C@H]1CCOC1=O)c1ccc(C2CC2)c(OCC2CC2)n1` [Example 362, 5-Cyclopropyl-6-cyclopropylmethoxy-pyridine-2-carboxylic acid ((S)-2-oxo-tetrahydro-furan-3-yl)-amide], the EC50 (human CB1 receptors) is reported as > 10 µM and the EC50 (human CB2 receptors) is reported as 441 nM.

For `CNC(=O)[C@H](CC(C)(C)C)NC(=O)c1ccc(C(F)(F)F)c(OCC2CC2)n1` [Example 228, 6-Cyclopropylmethoxy-5-trifluoromethyl-pyridine-2-carboxylic acid ((S)-3,3-dimethyl-1-methylcarbamoyl-butyl)-amide], the EC50 (human CB1 receptors) was > 10 µM and the EC50 (human CB2 receptors) was 16.8 nM.

With `Cc1nc(C(C)(NC(=O)c2ccc(N3CC(F)(F)C3)c(OCC3CC3)n2)C2CC2)no1` (centres unmarked) [Example 340, 6-Cyclopropylmethoxy-5-(3,3-difluoro-azetidin-1-yl)-pyridine-2-carboxylic acid [1-cyclopropyl-1-(5-methyl-[1,2,4]oxadiazol-3-yl)-ethyl]-amide] the EC50 (human CB1 receptors) was > 10 µM and the EC50 (human CB2 receptors) was 5.7 nM.

For `CCC(CC)(NC(=O)c1ccc(C2CC2)c(OCC[C@@H](O)C(F)(F)F)n1)C(=O)NC` [Example 314, 5-Cyclopropyl-6-((R)-4,4,4-trifluoro-3-hydroxy-butoxy)-pyridine-2-carboxylic acid (1-ethyl-1-methylcarbamoyl-propyl)-amide], the EC50 (human CB1 receptors) was 1.26 µM and the EC50 (human CB2 receptors) was 16.1 nM.

In the case of `CC(C)(C#N)NC(=O)c1ccc(C2CC2)c(OCC2CC2)n1` [Example 167, N-(2-Cyanopropan-2-yl)-5-cyclopropyl-6-(cyclopropylmethoxy)picolinamide], the EC50 (human CB1 receptors) is reported as > 10 µM and the EC50 (human CB2 receptors) is reported as 206 nM.

For `Cc1nc(C(C)(C)NC(=O)c2cccc(-c3cccc(Cl)c3)n2)no1` [Example 41, 6-(3-Chloro-phenyl)-pyridine-2-carboxylic acid [1-methyl-1-(5-methyl-[1,2,4]oxadiazol-3-yl)-ethyl]-amide], the EC50 (human CB1 receptors) was > 10 µM and the EC50 (human CB2 receptors) was 99.9 nM.

With `Cc1nc([C@](C)(NC(=O)c2ccc(C3CC3)c(OCC3CC3)n2)C2CC2)no1` [Example 324] the EC50 (human CB1 receptors) was > 10 µM and the EC50 (human CB2 receptors) was 4.1 nM.

With `CC(C)C[C@H](NC(=O)c1cccc(Cc2ccc(F)cc2)n1)C(N)=O` [Example 277, 6-(4-Fluoro-benzyl)-pyridine-2-carboxylic acid ((S)-1-carbamoyl-3-methyl-butyl)-amide] the EC50 (human CB1 receptors) was 1.7 µM and the EC50 (human CB2 receptors) was 16.6 nM.

With `O=C(NC1CCCCC1O)c1cccc(C2CCCCC2)n1` (centres unmarked) [Example 84, 6-Cyclohexyl-pyridine-2-carboxylic acid (2-hydroxy-cyclohexyl)-amide] the EC50 (human CB1 receptors) was > 10 µM and the EC50 (human CB2 receptors) was 292 nM.

Work on `Cc1nc([C@H](CC2CC2)NC(=O)c2ccc(C3CC3)c(Cc3ccc(F)cc3)n2)no1` [Example 327, 5-Cyclopropyl-6-(4-fluoro-benzyl)-pyridine-2-carboxylic acid [(S)-2-cyclopropyl-1-(5-methyl-[1,2,4]oxadiazol-3-yl)-ethyl]-amide] yielded an EC50 (human CB1 receptors) of 0.0136 µM and an EC50 (human CB2 receptors) of 1.1 nM.

For `Cc1nc([C@H](CC2CC2)NC(=O)c2ccc(N3CC(F)(F)C3)c(OCC3CC3)n2)no1` [Example 138, 6-Cyclopropylmethoxy-5-(3,3-difluoro-azetidin-1-yl)-pyridine-2-carboxylic acid [(S)-2-cyclopropyl-1-(5-methyl-[1,2,4]oxadiazol-3-yl)-ethyl]-amide], the EC50 (human CB1 receptors) was > 10 µM and the EC50 (human CB2 receptors) was 26.7 nM.

For `O=C(Nc1ccccn1)c1cccc(-c2cccc(Cl)c2)n1` [Example 20, 6-(3-Chloro-phenyl)-pyridine-2-carboxylic acid pyridin-2-ylamide], the EC50 (human CB1 receptors) was > 10 µM and the EC50 (human CB2 receptors) was 262 nM.
